The target in one test is hDGKalpha(1-735)-N-His (Homo sapiens (Human), UniProt P23743). Description: DGKalpha ADP Glo assay (in vitro DGK inhibition). The class given is biochemical. The note with it: DLG 125 uM, ATP 25 μM, DGK α 4 nM, 1 hour reaction. In outline:
(§1)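 His-tagged human DGKα (4 nM) and DGKζ (2 nM) phosphorylate DLG presented in DLG/PS/PC liposomes using ATP; reaction run 1 hour. ADP formed measured by ADP-Glo luminescence. Compounds tested as 11-point 1:3 dose response […], 2% DMSO final.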
(In general: ADP-Glo turns the ADP formed in a reaction into a luminescent signal.)

A further test has as its target hDGKzeta(1-928)-N-His (Homo sapiens (Human), UniProt Q13574). Description: DGKzeta ADP Glo assay (in vitro DGK inhibition). The class given is biochemical. The note with it: DLG 125 uM, ATP 50 μM, DGK ζ 2 nM, 1 hour reaction. In outline:
as §1

The subject of test [1] is primary human T-cells. Description: Proliferation assay after 5 days (CellTiter-Glo, CD3 stimulation; PBS counter screen). The class given is cell-based. The note with it: Homo sapiens, T-cell, 120 h, CD3 stimulation; for Emax: 5 days, normalized to reference compound A1 as stimulator control = 100%, DMSO neutral control, read-out: Emax proliferation (% activation); for EC50: primary human T-cells, CellTiter-Glo after 5 days, EC50 of fitted sigmoidal curve, read-out: Tcell Proliferation CD3 EC50. An outline of the steps: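 Cpds added to medium-only plates; 5 d culture. Readout CellTiter-Glo 2.0 (equal vol), RT 45 min equilibration, 15 min rocking RT, luminescence. ATP signal taken as cell number.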

The next test has as its system MV-3 cells. The test is described as follows: T-cell - TCB - MV3 killing assay (MCSP-TCB, RFP object count by Incucyte). Type of test: cell-based, human. The note with it: Homo sapiens, MV-3, 120 h, 5 d; for Emax: normalized: MCSP-TCB only = neutral control, 20 μM reference compound A1 = 100%, read-out: MSCP TCB killing MV-3 cells 5 d Emax; for EC50: primary human T-cells + MCSP-TCB, MV-3 RFP cells, read-out: MSCP TCB killing MV-3 cells 5 d EC50.

Test [2] has as its system primary human T-cells.

Where two headings read alike, the source gives them in different places.

hDGKzeta(1-928)-N-His, sequence (Q13574 whole entry): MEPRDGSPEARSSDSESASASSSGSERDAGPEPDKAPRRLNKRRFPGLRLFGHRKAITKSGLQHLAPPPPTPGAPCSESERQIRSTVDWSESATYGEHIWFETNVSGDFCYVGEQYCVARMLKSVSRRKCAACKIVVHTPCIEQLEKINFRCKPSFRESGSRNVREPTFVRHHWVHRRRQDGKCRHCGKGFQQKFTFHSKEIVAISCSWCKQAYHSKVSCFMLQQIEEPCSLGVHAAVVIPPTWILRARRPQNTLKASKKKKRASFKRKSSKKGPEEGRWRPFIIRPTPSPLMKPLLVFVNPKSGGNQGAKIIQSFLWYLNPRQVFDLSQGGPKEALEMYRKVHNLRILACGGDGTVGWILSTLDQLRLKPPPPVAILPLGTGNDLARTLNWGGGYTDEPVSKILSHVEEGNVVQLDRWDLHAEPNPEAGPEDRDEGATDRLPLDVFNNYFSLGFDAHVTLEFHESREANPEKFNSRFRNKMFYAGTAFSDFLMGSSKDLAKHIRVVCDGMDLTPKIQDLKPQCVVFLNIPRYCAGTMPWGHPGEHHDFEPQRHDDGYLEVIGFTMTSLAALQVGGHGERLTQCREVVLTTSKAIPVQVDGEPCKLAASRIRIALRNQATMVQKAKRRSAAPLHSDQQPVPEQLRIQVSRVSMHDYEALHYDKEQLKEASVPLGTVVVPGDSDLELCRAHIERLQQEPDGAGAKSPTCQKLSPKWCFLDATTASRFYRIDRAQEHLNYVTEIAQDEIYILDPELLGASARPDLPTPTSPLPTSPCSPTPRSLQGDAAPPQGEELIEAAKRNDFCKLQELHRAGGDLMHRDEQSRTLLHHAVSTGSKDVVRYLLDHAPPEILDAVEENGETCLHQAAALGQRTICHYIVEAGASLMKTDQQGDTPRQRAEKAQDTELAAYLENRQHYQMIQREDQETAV
hDGKalpha(1-735)-N-His, sequence (P23743 whole entry): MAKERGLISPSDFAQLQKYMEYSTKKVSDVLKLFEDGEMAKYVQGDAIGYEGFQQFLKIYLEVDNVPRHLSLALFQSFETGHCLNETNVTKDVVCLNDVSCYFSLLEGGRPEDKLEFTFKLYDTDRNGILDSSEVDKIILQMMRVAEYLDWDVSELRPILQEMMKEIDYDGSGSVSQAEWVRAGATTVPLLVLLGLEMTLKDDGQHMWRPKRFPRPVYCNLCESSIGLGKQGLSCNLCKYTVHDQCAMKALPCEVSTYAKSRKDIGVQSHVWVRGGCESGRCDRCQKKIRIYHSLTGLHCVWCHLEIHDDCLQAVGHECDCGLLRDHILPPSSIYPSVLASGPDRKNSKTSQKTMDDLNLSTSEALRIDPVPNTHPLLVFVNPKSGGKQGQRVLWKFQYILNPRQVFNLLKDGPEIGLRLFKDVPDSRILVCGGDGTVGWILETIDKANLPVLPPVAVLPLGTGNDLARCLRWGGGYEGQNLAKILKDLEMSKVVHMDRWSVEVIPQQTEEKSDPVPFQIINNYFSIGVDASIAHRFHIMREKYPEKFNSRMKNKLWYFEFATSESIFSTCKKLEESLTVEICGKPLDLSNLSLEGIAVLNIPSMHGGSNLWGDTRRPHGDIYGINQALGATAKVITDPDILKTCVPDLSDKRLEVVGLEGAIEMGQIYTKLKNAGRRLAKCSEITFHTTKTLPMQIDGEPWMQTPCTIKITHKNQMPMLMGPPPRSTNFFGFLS

Turning to `CC(C)(C)c1nnc(-c2cc3c(cc2F)S(=O)(=O)C[C@H](NC(=O)CN)C(=O)N3Cc2ccc(Cl)cc2)o1` [Example 266, 2-amino-N-[(3R)-7-(5-tert-butyl-1,3,4-oxadiazol-2-yl)-5-[(4-chlorophenyl)methyl]-8-fluoro-1,1,4-trioxo-2,3-dihydro-1λ^6,5-benzothiazepin-3-yl]acetamide], the values for the IC50 at hDGKalpha(1-735)-N-His and against hDGKzeta(1-928)-N-His were 54500 nM and 40100 nM, respectively. The Emax came to 137% with primary human T-cells [1] and 76% with MV-3 cells. For the same compound, the EC50 in the test with primary human T-cells [1] is 77.5 nM; with MV-3 cells, 20 nM; with primary human T-cells [2] it was 214 nM.
Consider `CC(C)(CO)c1nc(-c2cc3c(cc2F)S(=O)(=O)C[C@H](N)C(=O)N3Cc2ccc(Cl)cc2)no1` [Example 303, (3R)-3-amino-5-[(4-chlorophenyl)methyl]-8-fluoro-7-[5-(2-hydroxy-1,1-dimethyl-ethyl)-1,2,4-oxadiazol-3-yl]-1,1-dioxo-2,3-dihydro-1λ^6,5-benzothiazepin-4-one], for which the IC50 against hDGKalpha(1-735)-N-His was determined as 301 nM; on hDGKzeta(1-928)-N-His, 251 nM. Moreover, the results for the Emax in the test with primary human T-cells [1] and with MV-3 cells were 140% and 92%, respectively. The EC50 with primary human T-cells [1] stood at 605 nM; in the test on MV-3 cells, 400 nM; with primary human T-cells [2], 1070 nM.
`CC(N)(c1nc(-c2cc3c(cc2F)S(=O)(=O)C[C@H](N)C(=O)N3Cc2ccc(OC(F)(F)F)cc2)no1)C(F)(F)F` (stereo partly drawn) [Example 331, (3R)-3-amino-7-[5-(1-amino-2,2,2-trifluoro-1-methyl-ethyl)-1,2,4-oxadiazol-3-yl]-8-fluoro-1,1-dioxo-5-[[4-(trifluoromethoxy)phenyl]methyl]-2,3-dihydro-1λ^6,5-benzothiazepin-4-one]: the figures for the IC50 on hDGKalpha(1-735)-N-His and against hDGKzeta(1-928)-N-His were 857 nM and 176 nM, respectively. The Emax was determined as 126% with primary human T-cells [1] and 116% in the test on MV-3 cells. The EC50 in the test on primary human T-cells [1] was 58.4 nM; in the test on MV-3 cells, 30 nM; in the test on primary human T-cells [2] it was 74.6 nM.
In the case of `CC(C)(C)c1nnc(-c2ccc3c(c2)N(Cc2ccc(Cl)cc2)C(=O)[C@@H](N)CS3(=O)=O)o1` [Example 361], the IC50 against hDGKalpha(1-735)-N-His was found to be 876 nM; at hDGKzeta(1-928)-N-His it was 933 nM. In addition, the Emax in the test with primary human T-cells [1] and with MV-3 cells was 100% throughout. The EC50 amounted to 361 nM with primary human T-cells [1], 560 nM in the test with MV-3 cells and 525 nM in the test on primary human T-cells [2].
For the compound `N[C@H]1CS(=O)(=O)c2ccc(-c3nnc(C4(C5CC5)CCCO4)o3)cc2N(Cc2ccc(Cl)cc2)C1=O` (stereo partly drawn) [Example 381, (3R)-3-amino-5-[(4-chlorophenyl)methyl]-7-[5-(2-cyclopropyltetrahydrofuran-2-yl)-1,3,4-oxadiazol-2-yl]-1,1-dioxo-2,3-dihydro-1λ^6,5-benzothiazepin-4-one], the IC50 on hDGKalpha(1-735)-N-His was 3310 nM; at hDGKzeta(1-928)-N-His it was 658 nM. Besides, the Emax with primary human T-cells [1] was determined as 119%; in the test on MV-3 cells it was 101%. The EC50 was 2420 nM in the test with primary human T-cells [1], 160 nM with MV-3 cells and 2400 nM in the test on primary human T-cells [2].
Consider `CN1CCCC(F)(c2nnc(-c3ccc4c(c3)N(Cc3ccc(Cl)cc3)C(=O)[C@@H](N)CS4(=O)=O)o2)C1` (stereo partly drawn) [Example 384, (3R)-3-amino-5-[(4-chlorophenyl)methyl]-7-[5-(3-fluoro-1-methyl-3-piperidyl)-1,3,4-oxadiazol-2-yl]-1,1-dioxo-2,3-dihydro-1λ^6,5-benzothiazepin-4-one], for which the values for the IC50 against hDGKalpha(1-735)-N-His and on hDGKzeta(1-928)-N-His were 4580 nM and 2250 nM, respectively. Further, the figures for the Emax in the test on primary human T-cells [1] and in the test with MV-3 cells were 112% and 110%, respectively. In addition, the EC50 in the test with primary human T-cells [1] was determined as 698 nM; in the test on MV-3 cells, 990 nM; in the test with primary human T-cells [2] it was 792 nM.

In general, IC50 refers to the concentration needed to halve the response being measured. Higher therefore signals a need for much substance.

Values taken from patent US20240368150A1 (Hoffmann-La Roche Inc., priority 2021, published 2024).
